This is an account of results in ChEMBL document CHEMBL1127280, “Imidazolidinones and pyrazolones as novel ACAT inhibitors: Chemistry and biological activity” (Bioorg Med Chem Lett, 1994).

What is called IC50 is the point on the concentration scale where inhibition reaches its midpoint. The low end stands for greater potency, the high end for weaker potency.

One experiment has as its target O-acyltransferase (Oryctolagus cuniculus, UniProt G1SFD9). The experiment is described as follows: In vitro Acyl coenzyme A:cholesterol acyltransferase inhibition by incubation with [14C]oleolyl-CoA and intestinal microsomes isolated from cholesterol-fed rabbits. On the set-up: species or system Intestine.
For another experiment, the species on record is Rattus norvegicus. The experiment is described as follows: Cholesterol lowering activity was assessed in rats expressed as percent change in total cholesterol (TC) in cholic acid-cholesterol-peanut oil fed rats. Type of experiment: functional.

SMILES strings stand for the structures.

Sequence of O-acyltransferase (G1SFD9 1-524): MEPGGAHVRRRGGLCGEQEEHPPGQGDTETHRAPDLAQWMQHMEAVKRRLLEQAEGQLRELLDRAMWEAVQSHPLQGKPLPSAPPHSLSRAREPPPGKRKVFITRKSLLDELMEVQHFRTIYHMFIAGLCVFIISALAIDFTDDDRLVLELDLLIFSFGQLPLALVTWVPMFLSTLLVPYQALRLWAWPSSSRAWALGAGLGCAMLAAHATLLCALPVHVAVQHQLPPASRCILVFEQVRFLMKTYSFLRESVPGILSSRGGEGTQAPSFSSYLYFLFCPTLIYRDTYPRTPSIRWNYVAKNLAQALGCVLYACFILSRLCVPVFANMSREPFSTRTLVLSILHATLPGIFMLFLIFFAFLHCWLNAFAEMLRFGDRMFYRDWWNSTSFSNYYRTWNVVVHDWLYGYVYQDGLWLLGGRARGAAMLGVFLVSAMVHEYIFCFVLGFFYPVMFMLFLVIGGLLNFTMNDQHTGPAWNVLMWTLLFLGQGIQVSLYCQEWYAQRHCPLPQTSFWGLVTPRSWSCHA

`CC(C)c1cccc(C(C)C)c1N1CNC(C(c2ccccc2)c2ccccc2)C1=O` (stereo unspecified) returned an IC50 at O-acyltransferase of 3.9 µM. For `CC(C)c1cccc(C(C)C)c1N1CN(CC(c2ccccc2)c2ccccc2)CC1=O`, the “Change in TC” value in the experiment listed under Rattus norvegicus is on record as -6%. In addition, it took 5 µM to reach half-maximal inhibition against O-acyltransferase (IC50). At O-acyltransferase, `CCCCCCCCCCC1=NN(c2c(C)cccc2C)C(=O)C1` had an IC50 of 5 µM. On the same count and under the same terms, the same measure for `Cc1cccc(C)c1N1N=C(CC(c2ccccc2)c2ccccc2)CC1=O`: 50.8 µM.

Take `CCCCCCCC/C=C\CCCCCCCC1=NN(c2c(Cl)cccc2Cl)C(=O)C1`: the “Change in TC” value in the experiment filed under Rattus norvegicus is listed as -18%. The IC50 at O-acyltransferase was 22.9 µM. For `CCCCCCCC/C=C\CCCCCCCC1=NN(c2ccc(C)cc2C)C(=O)C1`, in that order: -26% and 5 µM. As to `CC(C)c1cccc(C(C)C)c1N1CNC(Cc2ccccc2)C1=O` (stereo unspecified), in the experiment listed under Rattus norvegicus, the “Change in TC” value is given as -9%. Moreover, it took 5.5 µM to reach half-maximal inhibition on O-acyltransferase (IC50). As to `CCCCCCCC/C=C\CCCCCCCC1=NN(c2ccc(F)cc2F)C(=O)C1`, the IC50 on O-acyltransferase is 5 µM. Consider `CC(C)c1cccc(C(C)C)c1N1CN(C(c2ccccc2)c2ccccc2)CC1=O`, for which the IC50 against O-acyltransferase amounted to 1.3 µM. For the compound `CCCCCCCC/C=C\CCCCCCCC1=NN(c2ccc(Cl)cc2Cl)C(=O)C1`, on O-acyltransferase, half-maximal inhibition (IC50) required 9.9 µM.

For the compound `CCCCCCCC/C=C\CCCCCCCC1=NN(c2ccc([N+](=O)[O-])cc2[N+](=O)[O-])C(=O)C1`, the “Change in TC” value in the experiment listed under Rattus norvegicus is -26%. This compound gave an IC50 against O-acyltransferase of 5 µM.
